Reference: ChEMBL document CHEMBL1159160, “L-162,389: a potent orally active angiotensin II receptor antagonist with balanced affinity to both AT1 and AT2 receptor subtypes” (Bioorg Med Chem Lett, 1996)
pIC50: −log10 of the molar value.

Tests used:
[1] = molecular target: T1, Type-2 angiotensin II receptor (Rattus norvegicus, UniProt P35351); assay: Compound was evaluated for inhibition of 125I[Sar1,Ile8] aII binding to rat midbrain membrane preparation Angiotensin II receptor, type 2; assay type: tissue-based
T1 sequence (P35351 whole entry): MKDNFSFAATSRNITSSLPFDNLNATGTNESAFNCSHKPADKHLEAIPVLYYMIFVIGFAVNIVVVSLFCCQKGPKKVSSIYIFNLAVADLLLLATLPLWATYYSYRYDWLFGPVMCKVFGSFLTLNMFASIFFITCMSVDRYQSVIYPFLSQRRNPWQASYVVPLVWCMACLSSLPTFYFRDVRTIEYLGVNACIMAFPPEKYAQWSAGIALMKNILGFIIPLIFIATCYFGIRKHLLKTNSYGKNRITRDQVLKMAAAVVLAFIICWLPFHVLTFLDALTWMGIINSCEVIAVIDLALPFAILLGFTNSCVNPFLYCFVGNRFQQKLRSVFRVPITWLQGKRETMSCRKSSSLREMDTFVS

[2] = molecular target: T2, Type-1 angiotensin II receptor (Oryctolagus cuniculus, UniProt P34976); assay: Compound was evaluated for inhibition of 125I[Sar1,Ile8] all binding to rabbit aorta Angiotensin II receptor, type 1; assay type: tissue-based
T2 sequence (P34976 whole entry): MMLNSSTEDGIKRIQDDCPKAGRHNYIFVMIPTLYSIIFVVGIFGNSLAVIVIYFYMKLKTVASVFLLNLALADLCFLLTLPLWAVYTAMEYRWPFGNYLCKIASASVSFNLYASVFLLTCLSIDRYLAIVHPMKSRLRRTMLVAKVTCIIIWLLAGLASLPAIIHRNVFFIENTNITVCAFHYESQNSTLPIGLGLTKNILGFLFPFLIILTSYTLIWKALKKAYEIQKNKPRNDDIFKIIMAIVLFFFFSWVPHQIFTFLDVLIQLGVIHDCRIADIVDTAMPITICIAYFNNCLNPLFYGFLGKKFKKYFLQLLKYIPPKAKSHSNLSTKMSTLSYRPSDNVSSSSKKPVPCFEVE

Row | pIC50 [1] | pIC50 [2] | Compound
1 | 7.06 | 9.70 | CCCCOC(=O)NS(=O)(=O)c1ccc(C)cc1-c1ccc(Cn2c(CC)nc3c(C)cc(C)nc32)cc1
2 | 7.02 | 9.70 | CCCCOC(=O)NS(=O)(=O)c1ccccc1-c1ccc(Cn2c(CC)nc3c(C)cc(C)nc32)cc1
3 | 8.42 | 8.68 | CCCCOC(=O)NS(=O)(=O)c1ccc(CCC)cc1-c1ccc(Cn2c(CC)nc3c(C)cc(C)nc32)cc1
4 | 7.43 | 8.85 | CCCCOC(=O)NS(=O)(=O)c1ccc(CC)cc1-c1ccc(Cn2c(CC)nc3c(C)cc(C)nc32)cc1
